Measured values reported in PMC10622577, “Structural basis for stabilisation of the RAD51 nucleoprotein filament by BRCA2” (Nature Communications, 2023).

Tests used:
wild-type RAD51 NPFs = assay: EMSA of TR2 titration on wild-type RAD51 nucleoprotein filaments (NPFs); assay type: binding, human
Description: To assess RAD51 nucleoprotein (NPF) formation, wild-type and mutant RAD51 proteins were incubated with DNA in buffer: 25 mM HEPES pH 7.5, 150 mM NaCl, 2 mM DTT, 2 mM ATP, 5 mM CaCl2 for 15 minutes at room temperature. For filament binding of the TR2 peptide or His6-MBP-TR2 protein, the RAD51 NPFs were incubated with TR2 for further 5 minutes at room temperature. For filament binding of BRC4, the BRC4 peptide was pre-mixed with RAD51 for 10 minutes at room temperature before addition of DNA. For experiments with mono-streptavidin (mSA)-capped DNA, mSA (Sigma) was added in 5× molar excess of biotin labels for 15 minutes at room temperature prior to the addition of RAD51. Concentrations are provided in figures and DNA sequences for each experiment are reported in Supplementary Table 1.
Before electrophoresis, samples were mixed with a 0.5:1 volume of 50% (w/v) sucrose solution and analysed on a pre-run 0.5% (w/v) agarose gel in 0.5× TB buffer at 35 V for 2.5 hours at 4 °C. DNA was visualised by excitation of the fluorescent tag or, in the case of unlabelled DNA, by SYBR Gold staining. Gels were imaged in a Typhoon FLA9000 by excitation at 473 nm for fluorescein-labelled DNA or SYBR Gold-stained gels, 532 nm excitation for Cy3-labelled DNA or 635 nm excitation for Cy5-labelled DNA.
(§1) Supplementary table 1. DNA oligos and peptides
(§2) Oligos Size (nt) Sequence (5’ – 3’)
D184A […] (forward), […]

RAD51 D184A, D187A NPFs = assay: SPR of TR2 binding to RAD51 D184A, D187A NPFs; parameters: species or system human
Description: We investigated further the effect of the acidic patch mutations on TR2 binding using surface plasmon resonance (SPR). We developed an SPR assay whereby increasing amounts of TR2 peptide were added to RAD51 NPFs that had been assembled on biotinylated DNA coupled to a streptavidin chip (Supplementary Fig. 3A, Supplementary Table 1). […] We used the same SPR assay to assess the effect of the mutations on the ability of BRC4 to disrupt an established filament (Supplementary Fig. 4A, Supplementary Table 1).
All SPR experiments were performed using a Biacore T200 instrument and an S-series SA (Streptavidin) sensor chip. A single chip was used to immobilise biotinylated single- and double-stranded DNA in buffer: 25 mM HEPES pH 7.4, 100 mM NaCl, 1 mM EDTA. ssDNA and dsDNA were immobilised in different channels to a signal of 120 RU and 250 RU, respectively.
All binding experiments were performed in CMA buffer: 25 mM HEPES pH 7.4, 100 mM NaCl, 2 mM DTT, 2 mM ATP, 5 mM CaCl2, 5 mM MgCl2. 1 μM RAD51 (wild-type, D184A or D184A, D187A mutant proteins) was injected for 120 seconds followed by buffer for 120 seconds at a flow rate of 10 μl/min. TR2 or BRC4 peptides were then injected in a concentration titration series of 0.1, 0.25, 0.5, 0.75, 1, 2, 3, 5, 7.5, 10 and 15 μM for 120 seconds at a flow rate of […] followed by a dissociation time of 240 seconds. After each injection of BRCA2 peptide, the sensor chip was regenerated with buffer comprising of CMA buffer with 1 M NaCl for 120 seconds at a flow rate of 100 μl/min. All experiments were performed in triplicate.
For the BRCA2 TR2 titration series, blank-subtracted sensorgrams were used to extract the maximum response accumulated after each TR2 injection. TR2 response accumulation was corrected to account for differences in RAD51 filament formation between runs, by multiplying the maximum response by a scale factor calculated as the ratio between mean RAD51 filament accumulation on each DNA substrate and the mean RAD51 accumulated for each mutant for each triplicate. The first experiment of the triplicate series for binding of TR2 to the D184A, D187A RAD51 NPF on dsDNA was discounted due to a failed peptide injection.
All graph plotting and statistical analysis was performed using Prism 9.3.1 (GraphPad). […] Data for each mutant on each substrate were fitted with a non-linear one-phase exponential decay.
as §1, §2
D184A […] (forward),
D184A, D187A […] (forward),
EMSA, SPR, CryoEM (micrographs, […]
Supplementary figs. 3, 4 (ssDNA) 60 Biotin-[…]
Supplementary figs. 3, 4 (dsDNA) 60 Biotin-[…],
Panel A (ssDNA) 32 Cy5-[…]
Panel B (dsDNA) 50 […]-Cy3,
Panel B (ssDNA) 60 Biotin-[…]-
Panel B (dsDNA) 60 Biotin,
Panel C (ssDNA) 32 Biotin-[…]-Biotin […]

For “DDQKNCKKRRALDFLSRLPLPPPVSPICTFVSPAAQKAFQPPRSCGTKY [TR2, BRCA2 TR2 peptide spanning amino acids 3260 to 3308]”, the “TR2 binding to wild-type RAD51 NPFs (filament formation and mobility)” value (wild-type RAD51 NPFs; 25 mM HEPES pH 7.5, 150 mM NaCl, 2 mM DTT, 2 mM ATP, 5 mM CaCl2, RAD51 + DNA 15 min, then TR2 5 min, room temperature, 0.5% agarose, fluorescein-labelled 60 nt ss- or dsDNA, ssDNA performed twice, dsDNA once) was “enhancement of filament formation accompanied by formation of larger species of reduced electrophoretic mobility”, the “bundling of TR2-bound filaments in the gel” value (wild-type RAD51 NPFs; EMSA Fig. 1C, authors' response to reviewers) was “do not show bundling” and the “TR2 binding by SPR relative to D184A mutant” value (RAD51 D184A, D187A NPFs; D187A compared with single D184A, n = 3) was “weaker binding compared with the single D184A mutant”. For the same sequence, the “TR2 binding by SPR relative to wild-type” value (RAD51 D184A, D187A NPFs; D187A, Biacore T200, streptavidin chip, biotinylated ss- or dsDNA, CMA buffer pH 7.4, 1 μM RAD51, TR2 0.1-15 μM, 120 s, n = 3 (one dsDNA run discounted, failed injection)) was “clear reduction in TR2 binding”, the “residual TR2 binding” value (RAD51 D184A, D187A NPFs; D187A, SPR Fig. 1E, authors' response to reviewers) was “retain a degree of binding” and the “impact of mutation on TR2 binding by SPR, ssDNA versus dsDNA” value (RAD51 D184A, D187A NPFs; D187A, ssDNA compared with dsDNA, n = 3) was “stronger for NPFs formed on ssDNA”.
